Reference: patent US20070072815A1, “Methods and kits to increase the efficiency of oligonucleotide-directed nucleic acid sequence alteration” (priority 2004, published 2007)
“Also recorded” adds a separate entry of the source.

Experiments:
[1] = tested on: mutant eGFP gene in DLD-1-1 cells; test: eGFP gene correction (oligonucleotide-directed sequence alteration) in DLD-1-1 cells, FACS readout; assay type: cell-based
Description: Cell line and culture conditions: DLD-1 cells are obtained from ATCC (American Type Cell Culture, Manassas, Va.). DLD-1 integrated clone 1 (DLD-1-1) is obtained by integration of the vector pEGFP-N3 containing a single point mutation (TAG) in the eGFP gene, as described in copending U.S. patent application Ser. No. 10/986,418, filed Nov. 10, 2004 (“Mammalian Cell Lines for Detecting, Monitoring, and Optimizing Oligonucleotide-Mediated Chromosomal Sequence Alteration”). Cells are grown in RPMI 1640 medium with 2 mM glutamine, 4.5 g/L glucose, 10 mM HEPES, 1 mM sodium pyruvate and supplemented with 10% FBS. Cells are maintained at 5% CO2, 37° C. and under selection in 200 μg/ml G418 (Gibco, Invitrogen Co., Carlsbad, Calif.).
eGFP gene correction: Cells grown in complete medium supplemented with 10% FBS are trypsinized and harvested by centrifugation. The cell pellet is resuspended in serum-free medium at a density of 1×10^6 cells/100 μl and transferred to a 4 mm gap cuvette (Fisher Scientific, Pittsburgh, Pa.). The oligonucleotide is then added at a concentration of 4 μM and the cells are electroporated (LV, 250V, 13 msec, 2 pulses, 1 second interval) using a BTX ECM830 apparatus (BTX, Holliston, Mass.). The cells are then transferred to a 60 mm dish containing fresh medium supplemented with 10% FBS and incubated for 48 hrs at 37° C. before harvesting for FACS analysis.
The percentage of converted cells in a whole population is then calculated by CellQuest™ (Becton Dickinson) and GFP/PI programs. The correction efficiency is determined by dividing the number of eGFP positive cells by the number of cells analyzed in each experiment (usually 50,000 cells). Each clone is tested three times to determine the standard deviation of the correction efficiency, with standard deviation calculated using Microsoft Excel.
The experimental strategy involves the introduction of oligonucleotides into DLD-1-clone 1 cells by electroporation followed by phenotypic readout of the corrected eGFP gene, 48 hours later. The correcting oligonucleotide (EGFP3S/72NT) is 72 bases in length (72-mer), complementary to the non-transcribed strand of the mutant eGFP gene but designed to create a single mismatch in the third base of codon 67 (see FIG. 1A). It directs conversion of a TAG→TAC codon which enables phenotypic expression of eGFP, which can be detected by FACS. FIG. 1B outlines the sequence of the target gene, the 72-mer and a nonspecific 74-mer used as a control.
Oligonucleotide-Directed Sequence Alteration: The resulting synchronized populations of cells, and asynchronous controls, are grown in complete medium supplemented with 10% FBS and trypsinzed and harvested by centrifugation at 1500 rpm for 5 minutes. The cell pellet is resuspended in fresh serum-free medium at a density of 2×10^6 cells/100 μl. The entire cell suspension is mixed with 20 μg of EGFP/72NT and transferred into a 4 mm gap cuvette (Fisher Scientific, Pittsburgh, Pa., USA) followed by electroporation with two 250V pulses, each 13 ms in duration, with one second between pulses, unipolar.
Cells are incubated at room temperature for 30 min. […] Frequency of converted cells are calculated by CellQuest™ and GFP/PI programs.
Double Thymidine Block: Cells are synchronized in G1 or at the G1/S border by a double thymidine block. Twenty-four hours prior to the addition of any agent (HU, etc.), cells are plated at a density of 0.5×10^6 cells per 100 mm dish, followed by incubation in 2 mM thymidine (Sigma) for 16 hrs, washed and released in fresh medium for 10 hrs, then incubated in 2 mM thymidine for an additional 15 hrs.
FACS is then used to analyze 50,000 cells from each population to determine the percentage of cells expressing functional eGFP, as described in Example 1.

[2] = tested on: α-galactosidase A (GLA) activity in Fabry's cell line DMN-1; test: GLA activity in Fabry's cells after ODSA; assay type: cell-based, human
Text: Cell line DMN-1, a human fibroblast cell line derived from a human patient with Fabry's disease, is obtained from the National Institutes of Health (NIH). These cells are used to measure the efficiency of correction of a mutant allele of α-galactosidase A (GLA) using methods of the present invention. The specific disease-causing mutation in the Fabry's cell line used herein is A143P, caused by a G→C mutation in the gene. See Branton et al., Medicine (Baltimore) (2002) 81(2): 122-38.
All four oligonucleotides are used to effect ODSA substantially as described in Example 1, with the exception that cells are transfected with oligonucleotides, rather than electroporated. Oligos are added at 5 μg, 10 μg or 30 μg per reaction. After ODSA is performed, cells are cultured and assayed for GLA activity according to the method of Brady, as described in Medin et al., Proc. Natl. Acad. Sci. (USA) (1996) 93:7917-22, the disclosure of which is incorporated herein by reference in its entirety. The GLA activity is used as a measure of gene correction by comparing the activities in treated versus untreated cultures. The correction efficiency is subsequently confirmed by sequencing of the locus of mutation in a number of treated cells.
[…] Unlike the experiments involving correction of eGFP in DLD-1-1 cells described in Example 1, however, certain of the agents (VPA, caffeine, TSA) in the experiments in this example are not added before transfection, but are instead added only after transfection, during the recovery period.
The means of introducing oligonucleotide into the target cells also differs from previous examples, with transfection in the presence of the transfection enhancing agent FuGENE™ 6 (FG) (Roche Diagnostics Corp., Indianapolis, Ind., USA) being used rather than electroporation. Each transfection reaction includes 100 μl of target cells and 12 μl of FG unless otherwise indicated, despite the fact that FG is not explicitly listed for each datapoint in the relevant figures. Otherwise the procedures used in the DLD-1-1 experiments and the Fabry's experiments are similar.
The results of a further series of experiments are shown at FIG. 15D, where the data are presented as GLA activity as nanomolar (nM) concentration of the product of the GLA assay generated per hour per unit protein concentration (as are the data in FIGS. D and E).

[3] = tested on: homologous recombination (HR); conditions: via inhibition of ATM kinase / p53 ser-15 phosphorylation; cited from earlier work

Compound: Cn1c(=O)c2c(ncn2C)n(C)c1=O [caffeine]
- effect on correction efficiency, recovery phase ([1]; 4 mM caffeine after electroporation, up to 48 hrs): dramatically increases correction efficiency; also recorded: stimulates correction; also recorded: the greater the enhancement of correction efficiency
- effect on MMS-enhanced correction ([1]; 4 mM caffeine in addition to 0.2 μM MMS): completely suppressing the enhancement otherwise caused by MMS
- effect on correction efficiency ([1]; 4 mM caffeine pre-treatment, with or without 0.2 μM MMS): lower than the control experiment; also recorded: ineffective at increasing the efficiency of gene repair
- effect on correction efficiency, pretreatment ([1]; 4 mM caffeine prior to electroporation): decreases correction efficiency; also recorded: inhibits oligonucleotide-directed gene correction; also recorded: reduction in basal repair levels
- correction levels ([1]; caffeine added to ddC-treated cells, pretreatment (FIG. 20)): 0.6%
- effect on ddC-stimulated gene repair ([1]; inhibitor added with ddC before electroporation (FIG. 20)): blocks the stimulation in gene repair caused by ddC treatment; also recorded: knocks down correction induced by ddC
- effect on GLA activity ([2]; synchronized cells treated with 0.3 mM HU, 4 mM caffeine during recovery period): modest effect on GLA activity
- effect on ddC-enhanced GLA activity ([2]; synchronized cells, 500 μM ddC, 4 mM caffeine or 100 ng/ml TSA during recovery period): eliminate the ability of 500 μM ddC to enhance GLA activity
- reduction of the level of HR [3]: 60-90%
